Here are results for 22 compounds from PubChem BioAssay (NCI).

What all share (experiment): growth of human tumour cells (NCI), 48 h
Test [1] concerns OVCAR-4 ovarian.
Test [2] concerns KM20L2 colon.
For test [3], the system named is SNB-78 CNS.
In test [4] the test system is OVCAR-3 ovarian.
Test [5] has as its system HCT-15 colon.
The test system of test [6] is DU-145 prostate.
In test [7] the test system is HL-60(TB) leukemia.
The subject of test [8] is HCT-116 colon.
The test system of test [9] is MOLT-4 leukemia.
Test [10] concerns HS 578T breast.
The test system of test [11] is DMS 114 small cell lung.

The structures appear in SMILES notation. Several values for one entry are separate records, joined by “and”; a condition that tells them apart may be missing. Equal entries are not always repeated.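 Test compounds were applied to cells in 96-well plates for 48 hours at 5 doses. Abbreviation: GI50, concentration required for 50% inhibition of growth. TGI marks complete inhibition of growth.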

Turning to `COc1cccc2c1C(=O)c1c(O)c3c(c(O)c1C2=O)C[C@@](O)(C(=O)CO)CC3OC1CC(N)C(OC2CCCCO2)C(C)O1` (stereo partly drawn), the GI50 in [1] is 1.46 µM; in test [4], 0.0709 µM; in test [5] it was 0.034 µM; in test [7] it was < 0.001 µM; in [9], < 0.001 µM. For the same compound, the TGI was 4.98 µM in test [2]; 26.5 µM in test [3]; 2.36 µM and 13.3 µM in test [5]; 0.0489 µM in [6]; 1.16 µM and 3.31 µM in test [8]; 0.276 µM and 0.576 µM in [9]. The TGI in [10] amounted to 1.11 µM.

As for `O=c1nc2sc3ccccc3c(=O)n2[nH]1`, the TGI in test [1], in test [2], in test [3], in test [4], in test [5] and in test [7] was > 100 µM throughout. Also, the TGI in test [8] and in test [9] was > 100 µM in each case.

With `Cc1ccc(S(=O)(=O)OCOS(=O)(=O)c2ccc(C)cc2)cc1`, the TGI in test [2], in test [4], in [5], in [11], in [7] and in test [8] was > 100 µM in each case. Moreover, the TGI in test [9] is > 100 µM.

As to `Cc1ccccc1NC(=O)Cc1nc2ccccc2s1`, the TGI came out at 32.5 µM in [1]; 36.6 µM in test [2]; 32.6 µM in test [3]; 32 µM in test [4]; 62 µM in test [7]; 31 µM in test [8]. Also, in [9], the TGI was 41.5 µM.

Regarding `CN1CCN(CCCNC(=O)c2c3c(n4ccccc24)C(=O)c2ncccc2C3=O)CC1`, the GI50 in test [1] is 0.413 µM; in test [4] it was 0.4 µM; in [5], 1.25 µM; in [6], 1.6 µM; in test [7] it was 2.23 µM; in [8], 0.632 µM. In addition, the GI50 in test [9] is 2.13 µM; in test [10] it was 5.32 µM. Besides, the TGI came out at 1.56 µM in test [1]; 3.53 µM in test [4]; 8.47 µM in test [5]; 9.37 µM in [6]; 5.76 µM in test [7]; 4.93 µM in [8]. In addition, the TGI in test [9] stood at 4.87 µM; in [10], 51.8 µM.

As for `CN(C)c1ccc(/C=C(\C#N)c2cc3ccccc3[nH]2)cc1`, the GI50 in [1] is 3.75 µM; in test [4], 0.409 µM; in test [5], 0.509 µM; in test [6] it was 3.41 µM; in test [7] it was 0.455 µM; in test [8], 0.456 µM. In addition, the GI50 in test [9] is 0.906 µM; in test [10], 1.63 µM. For the same compound, the TGI was > 100 µM in test [1]; 4.06 µM in test [4]; > 100 µM in test [5]; 35.4 µM in test [6]; > 100 µM in test [7]; > 100 µM in [8]. Moreover, the TGI in [9] is > 100 µM; in test [10], 9.49 µM.

In the case of `CCOC(=O)C1=C(OC(OCC)C([Se]c2ccccc2)C(C)C)CCC1` (stereo not drawn), the TGI in [1] was determined as 32.9 µM; in [2], 63.3 µM; in [3] it was 38.8 µM; in test [4], 40 µM; in [5] it was 29.4 µM; in test [7], 11.2 µM. Moreover, the TGI is 26 µM in [8] and 45.4 µM in test [9].

Take `COc1cc(-c2nn(-c3ccc(NC(=O)Nc4cc(C(F)(F)F)cc(C(F)(F)F)c4)cc3)cc2-c2ccncc2)ccc1Cl`: the GI50 was 2.78 µM in test [1]; 1.46 µM in test [4]; 1.58 µM in [5]; 3.39 µM in test [6]; 3.04 µM in [7]; 1.65 µM in test [8]. For the same compound, the values for the GI50 in test [9] and in [10] were 3.28 µM and 2.94 µM, respectively. The TGI in test [1] is 9.43 µM; in test [4], 3.88 µM; in test [5], 4.01 µM; in test [6], 11.2 µM; in test [7], > 100 µM; in test [8] it was 3.39 µM. In addition, the TGI in [9] and in [10] was > 100 µM throughout.

On to `CC(=O)[CH-]C(=O)c1ccccc1.CC(=O)[CH-]C(=O)c1ccccc1.Cl.[O-]c1ccnc2ccccc12.[O-]c1ccnc2ccccc12.[Ti+4]`, for which the GI50 in test [1], in test [2], in [4], in test [5], in test [7] and in test [9] was > 100 µM each time. For the same compound, the TGI in test [1], in test [2], in test [4], in test [5], in test [7] and in test [9] was > 100 µM throughout.

Regarding `COc1ccc(OC)c(Nc2nc3nonc3nc2Nc2cccc(Br)c2)c1`, the GI50 in test [1] is 0.867 µM; in test [4] it was 0.6 µM; in test [5] it was 0.756 µM; in [6] it was 3.4 µM; in [7], 0.702 µM; in test [8], 0.53 µM. Also, the GI50 in test [9] is 0.809 µM; in test [10], 0.807 µM. In addition, the TGI is > 100 µM in [1]; 21.6 µM in [4]; > 100 µM in test [5]; > 100 µM in test [6]; 5.9 µM in test [7]; > 100 µM in test [8]. For the same compound, the TGI in [9] came out at 12.1 µM; in test [10] it was 8.14 µM.

As for `C=C1C(=O)O[C@H]2[C@H]1CC/C(COC(=O)c1cccnc1N)=C\CC[C@@]1(C)O[C@@H]21`, the GI50 in test [1] is 2.08 µM; in [4], 1.04 µM; in test [5], 2.34 µM; in [6], 2.45 µM; in [7], 0.262 µM; in test [8] it was 0.36 µM. The GI50 in test [9] is 0.65 µM; in test [10] it was 4.15 µM. Besides, the TGI in [1] is 19.4 µM; in test [4] it was 2.88 µM; in test [5], 9.79 µM; in test [6], 12.7 µM; in test [7], 0.749 µM; in [8] it was 1.26 µM. Further, the TGI amounted to 6.46 µM in test [9] and 65.1 µM in [10].

As to `COc1ccc2c(c1)C(=Nc1ccc(F)c(Cl)c1)c1c-2c(Nc2ccc(F)c(Cl)c2)nc2ccccc12`, the GI50 in test [1] is 24.8 µM; in [4], 42.7 µM; in [5], > 71.3 µM; in test [6], > 100 µM; in [7], 14.8 µM; in [8], 27.8 µM. Moreover, the GI50 was 21.2 µM in test [9] and 35.3 µM in [10]. The TGI was > 75.7 µM in test [1]; > 100 µM in test [4]; > 100 µM in test [5]; > 100 µM in [6]; 33.1 µM in test [7]; > 100 µM in test [8]. In addition, the TGI in test [9] was 41.3 µM; in [10], 98.5 µM.

In the case of `CN(C)NC(=O)/C(=C/c1ccc(Cl)cc1)NC(=O)c1ccccc1`, the TGI in [1], in test [2], in [4], in test [5], in test [7] and in test [8] was > 100 µM in each case. Besides, the TGI in test [9] was > 100 µM.

As to `O=S1(=O)c2ccccc2N(c2ccccc2)c2nnnn21`, the TGI in test [1] is 70.4 µM; in test [4], 47.2 µM; in test [5], 37.8 µM; in [6], > 100 µM; in test [7], 33.6 µM; in test [8] it was 86.9 µM. Moreover, the TGI is 55.3 µM in [9] and > 100 µM in test [10].

Turning to `Cc1ccc(/C=N/NC(=O)c2ccccc2Oc2ccccc2)o1`, the GI50 in [1] was 24.6 µM; in test [4], 40.1 µM; in test [5], 37.9 µM; in test [6], 73.2 µM; in [7], 22.8 µM; in test [8], 48.8 µM. Further, the GI50 is 22.8 µM in test [9] and 46.9 µM in test [10]. The TGI was > 100 µM in test [1]; > 100 µM in [4]; > 100 µM in test [5]; > 100 µM in [6]; > 74.1 µM in test [7]; > 100 µM in [8]. Besides, the values for the TGI in [9] and in [10] were 66.5 µM and > 100 µM, respectively.

Consider `CCOC(=O)c1cc(=O)n(C)c(=O)n1C`, for which the TGI in test [1], in test [2], in test [3], in test [4], in test [5] and in [8] was > 100 µM in each case. Also, the TGI in [9] was > 100 µM.

As for `Cc1sc(C(=O)c2cncnc2N[C@@H]2C[C@H](COS(N)(=O)=O)[C@@H](O)C2)cc1[C@@H]1NCCc2ccc(Cl)cc21`, the GI50 in test [1] was 4.38 µM; in [4], 4.98 µM; in [5], 6.64 µM; in test [6] it was 13.2 µM; in test [7], 0.294 µM; in test [8], 1.31 µM. The GI50 in test [9] was 0.59 µM; in test [10], 6.08 µM. Also, the TGI in test [1] worked out at 31.1 µM; in test [4], 21.7 µM; in test [5], 21.1 µM; in test [6], 27.8 µM; in test [7] it was 13.2 µM; in test [8], 22.6 µM. The TGI in test [9] came to 23.4 µM; in test [10] it was 44 µM.

Regarding `O=C(Nc1ccncc1)C(=O)c1cn(S(=O)(=O)c2cccc(Cl)c2)c2ccccc12`, the GI50 was 7.51 µM in test [1]; 4.12 µM in test [4]; 3.24 µM in test [5]; 10.9 µM in test [6]; 3.94 µM in [7]; 3.1 µM in [8]. In addition, the GI50 was 5.55 µM in test [9] and 77.1 µM in [10]. For the same compound, the TGI in test [1] is > 100 µM; in test [4], 23.4 µM; in test [5], > 100 µM; in test [6] it was > 100 µM; in [7] it was > 100 µM; in [8], 86.8 µM. In addition, the TGI in test [9] and in test [10] was > 100 µM throughout.

In the case of `CC12OC(CC(O)C1O)n1c3ccccc3c3c4c(c5c6ccccc6n2c5c31)C(=O)N(CCN1CCOCC1)C4=O` (stereo not drawn), the GI50 in test [1] was 2.2 µM; in test [4], 1.55 µM; in test [5], 1.26 µM; in test [6] it was 0.949 µM; in [7] it was 0.989 µM; in test [8], 0.625 µM. Further, the values for the GI50 in test [9] and in test [10] were 0.23 µM and 1.92 µM, respectively. Also, the TGI in [1] is 12.3 µM; in [4], 7.33 µM; in test [5], 8.21 µM; in [6], 6.1 µM; in test [7], 7.08 µM; in test [8], 5.51 µM. Moreover, the TGI in test [9] was 4.26 µM; in [10], 10.2 µM.

In the case of `COc1cc(OCc2ccccc2)c2c(CCC(=O)O)cc(=O)oc2c1` (tested in a mixture with another compound), the TGI in test [1] was > 100 µM; in test [4], > 100 µM; in test [5], > 100 µM; in test [6] it was > 100 µM; in [7], 93.7 µM; in test [8], > 100 µM. The TGI in test [9] is 90.4 µM; in test [10], > 100 µM.

In the case of `COc1ccc(Oc2nc3cc(N)cc(N)c3nc2-c2ccccc2)cc1`, the GI50 in test [1] is 3.75 µM; in [4] it was 14.9 µM; in [5], 52.1 µM; in test [6] it was 69.4 µM; in test [7], 15.4 µM; in [8], 28.7 µM. In addition, the GI50 in test [9] was 5.31 µM; in test [10] it was 24.3 µM. The TGI was 24.6 µM in [1]; 72.7 µM in test [4]; > 100 µM in test [5]; > 100 µM in test [6]; > 100 µM in [7]; 75.1 µM in test [8]. The TGI was 93.9 µM in test [9] and > 100 µM in test [10].

For `NS(=O)(=O)c1ccc(N=Nc2ccc[nH]c2=O)cc1`, the TGI in test [1], in [4], in test [5], in test [6], in [7] and in test [8] was > 100 µM throughout. Besides, the TGI in test [9] and in test [10] was > 100 µM throughout.
